Results published in the supplement of paper PMC4862054.

Experiments:
Details in all cases: incubation time: 72 h
CAL-120 [1] = test: normalised viability (% of control), CellTiter-Blue; higher = more viable cells (100 = DMSO, 0 = benzethonium chloride kill control)
Description: (§1)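 DSRT, CellTiter-Blue viability, 72 h incubation. Signal is normalised to DMSO and benzethonium chloride controls. Value is the normalised response at dose 1.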

MFM-223 [2] = test: as above
Description: as §1

SK-BR-3 [3] = test: as above
Description: as §1

BT-474 [4] = test: as above
Description: as §1

CAL-51 [5] = test: as above
Description: as §1

DU-4475 [6] = test: as above
Description: as §1

MDA-MB-468 [7] = test: as above
Description: as §1

MDA-MB-453 [8] = test: as above
Description: as §1

HCC1937 [9] = test: as above
Description: as §1

HCC1599 [10] = test: as above
Description: as §1

CAL-85-1 [11] = test: as above
Description: as §1

HCC1143 [12] = test: as above
Description: as §1

BT-549 [13] = test: as above
Description: as §1

MDA-MB-231 [14] = test: as above
Description: as §1

CAL-148 [15] = test: as above
Description: as §1

HDQ-P1 [16] = test: as above
Description: as §1

MDA-MB-436 [17] = test: as above
Description: as §1

Hs578T [18] = test: as above
Description: as §1

CAL-120 [19] = test: normalised response (% of control), CellTiter-Glo; higher = more viable cells (100 = DMSO, 0 = benzethonium chloride kill control)
Method in brief: (§2)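 Breast cancer cell lines were exposed for 72 h in 384-well plates to compound at 5 concentrations, 10-fold apart, covering a 10,000-fold range fixed for each compound. Plates were read for CellTox Green fluorescence and CellTiter-Glo luminescence and normalised to 0.1 % DMSO (100) and a positive kill control (0). Each value is the normalised signal at one concentration of the series.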

MFM-223 [20] = test: as above
Method in brief: as §2

SK-BR-3 [21] = test: as above
Method in brief: as §2

BT-474 [22] = test: as above
Method in brief: as §2

CAL-51 [23] = test: as above
Method in brief: as §2

DU-4475 [24] = test: as above
Method in brief: as §2

MDA-MB-468 [25] = test: as above
Method in brief: as §2

MDA-MB-453 [26] = test: as above
Method in brief: as §2

HCC1937 [27] = test: as above
Method in brief: as §2

HCC1599 [28] = test: as above
Method in brief: as §2

CAL-85-1 [29] = test: as above
Method in brief: as §2

MCF-10A = test: as above
Method in brief: as §2

HCC1143 [30] = test: as above
Method in brief: as §2

BT-549 [31] = test: as above
Method in brief: as §2

MDA-MB-231 [32] = test: as above
Method in brief: as §2

CAL-148 [33] = test: as above
Method in brief: as §2

HDQ-P1 [34] = test: as above
Method in brief: as §2

MDA-MB-436 [35] = test: as above
Method in brief: as §2

Hs578T [36] = test: as above
Method in brief: as §2

SMILES	normalised viability (CAL-120 [1])	normalised viability (MFM-223 [2])	normalised viability (SK-BR-3 [3])	normalised viability (BT-474 [4])	normalised viability (CAL-51 [5])	normalised viability (DU-4475 [6])	normalised viability (MDA-MB-468 [7])	normalised viability (MDA-MB-453 [8])	normalised viability (HCC1937 [9])	normalised viability (HCC1599 [10])	normalised viability (CAL-85-1 [11])	normalised viability (HCC1143 [12])	normalised viability (BT-549 [13])	normalised viability (MDA-MB-231 [14])	normalised viability (CAL-148 [15])	normalised viability (HDQ-P1 [16])	normalised viability (MDA-MB-436 [17])	normalised viability (Hs578T [18])	normalised response (CAL-120 [19])	normalised response (MFM-223 [20])	normalised response (SK-BR-3 [21])	normalised response (BT-474 [22])	normalised response (CAL-51 [23])	normalised response (DU-4475 [24])	normalised response (MDA-MB-468 [25])	normalised response (MDA-MB-453 [26])	normalised response (HCC1937 [27])	normalised response (HCC1599 [28])	normalised response (CAL-85-1 [29])	normalised response (MCF-10A)	normalised response (HCC1143 [30])	normalised response (BT-549 [31])	normalised response (MDA-MB-231 [32])	normalised response (CAL-148 [33])	normalised response (HDQ-P1 [34])	normalised response (MDA-MB-436 [35])	normalised response (Hs578T [36])
CO[C@H]1C[C@@H]2CC[C@@H](C)[C@@](O)(O2)C(=O)C(=O)N2CCCC[C@H]2C(=O)O[C@H]([C@H](C)C[C@@H]2CC[C@@H](OP(C)(C)=O)[C@H](OC)C2)CC(=O)[C@H](C)/C=C(\C)[C@@H](O)[C@@H](OC)C(=O)[C@H](C)C[C@H](C)/C=C/C=C/C=C/1C [Ridaforolimus] (0.1 nM)	84.8%	82.2%	81.8%	94%	97.2%	100%	96.8%	93%	108%	104%	82.1%	88%	91%	112%	99.4%	78.4%	105%	97.7%	101%	101%	105%	99.6%	114%	105%	96.5%	96.3%	93.1%	96.5%	101%	105%	102%	91.2%	99.3%	104%	94.1%	98.1%	97.7%
COCC[n+]1c2c(n(Cc3cnccn3)c1C)C(=O)c1ccccc1C2=O [YM155] (1 nM)	99.2%	98.8%	94.5%	103%	92.4%	108%	85.3%	93.3%	90.1%	136%	107%	114%	102%	83%	105%	81.3%	101%	107%	94.7%	86.8%	80.6%	86.8%	119%	94.7%	93.6%	86.2%	89.8%	84.7%	89.6%	82.1%	88.8%	96%	99.6%	93.3%	109%	81.3%	92.5%
O=C(Nc1ccncc1)C(=O)c1cn(Cc2ccc(Cl)cc2)c2ccccc12 [Indibulin] (1 nM)	92.1%	97%	102%	104%	106%	121%	102%	103%	95.8%	109%	98.9%	95.7%	100%	119%	111%	77.9%	161%	111%	99.1%	107%	110%	103%	59.7%	109%	103%	113%	100%	113%	106%	101%	97.2%	104%	102%	109%	106%	103%	100%
Cc1ccc(NC(=O)c2ccc(CN3CCN(C)CC3)cc2)cc1Nc1nc(-c2cccnc2)cs1 [Masitinib] (1 nM)	79.2%	96.8%	93.9%	102%	100%	102%	110%	98.4%	72.1%	92.2%	92.5%	89.9%	119%	93.4%	86.5%	84.1%	91.7%	109%	95.8%	102%	104%	96.4%	98.9%	103%	114%	110%	105%	119%	98.7%	96.6%	100%	103%	97.9%	101%	100%	100%	100%
